pIC50: −log10 of the molar value.
Each compound was assayed against PIK3CA (human) (UniProt P42336) (assay: Inhibition of PIK3CA Kinase Activity).
Chain of PIK3CA (human) (P42336 whole entry, looked up): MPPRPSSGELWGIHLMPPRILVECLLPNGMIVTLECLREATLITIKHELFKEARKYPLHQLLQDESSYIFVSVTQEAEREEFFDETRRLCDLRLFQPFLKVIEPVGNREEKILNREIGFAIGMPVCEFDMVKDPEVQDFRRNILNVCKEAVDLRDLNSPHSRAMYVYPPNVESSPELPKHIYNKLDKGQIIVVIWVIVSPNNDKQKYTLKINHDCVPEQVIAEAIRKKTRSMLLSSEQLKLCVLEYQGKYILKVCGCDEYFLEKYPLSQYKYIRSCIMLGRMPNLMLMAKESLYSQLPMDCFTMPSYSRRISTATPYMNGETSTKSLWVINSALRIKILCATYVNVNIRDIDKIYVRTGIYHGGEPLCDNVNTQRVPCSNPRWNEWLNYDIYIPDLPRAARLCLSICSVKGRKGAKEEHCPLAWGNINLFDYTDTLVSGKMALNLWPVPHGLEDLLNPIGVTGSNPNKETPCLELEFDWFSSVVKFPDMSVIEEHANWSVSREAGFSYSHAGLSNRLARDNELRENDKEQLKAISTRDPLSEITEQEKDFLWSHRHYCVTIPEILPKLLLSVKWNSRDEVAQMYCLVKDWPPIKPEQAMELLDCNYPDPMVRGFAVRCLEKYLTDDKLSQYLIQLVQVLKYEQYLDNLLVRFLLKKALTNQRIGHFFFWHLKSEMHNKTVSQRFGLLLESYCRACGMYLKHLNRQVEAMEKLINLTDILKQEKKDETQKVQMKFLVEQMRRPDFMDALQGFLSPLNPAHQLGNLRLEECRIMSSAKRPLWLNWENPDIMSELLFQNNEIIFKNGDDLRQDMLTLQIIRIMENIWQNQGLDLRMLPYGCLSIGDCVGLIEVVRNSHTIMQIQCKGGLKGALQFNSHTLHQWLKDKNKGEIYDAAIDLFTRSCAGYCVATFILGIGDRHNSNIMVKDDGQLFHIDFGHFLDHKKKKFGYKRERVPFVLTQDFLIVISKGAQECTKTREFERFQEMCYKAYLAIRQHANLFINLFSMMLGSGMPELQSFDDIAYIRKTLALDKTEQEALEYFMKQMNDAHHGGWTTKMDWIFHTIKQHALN
In the case of `Nc1ncc(-c2nc(N3CCOCC3)nc3c2ncn3C2CCOC2)cn1` (stereo not drawn), the pIC50 was greater than 6.00. `CC(C)Cn1cnc2c(-c3cccc4[nH]ccc34)nc(N3CCOCC3)nc21` showed a pIC50 greater than 6.00. Compound `C=CCCn1cnc2c(-c3cccc(O)c3)nc(N3CCOCC3)nc21` has a pIC50 greater than 6.00. `Nc1ncc(-c2nc(N3CCOCC3)nc3c2ncn3C2CCN(C(=O)c3ccccc3)C2)cn1` (stereo not drawn) was tested, and the pIC50 was greater than 6.00. `CC1CCC(n2cnc3c(-c4cccc(O)c4)nc(N4CCOCC4)nc32)CC1` (stereo not drawn) showed a pIC50 greater than 6.00. With `COc1ccc(Cn2cnc3c(-c4cccc(O)c4)nc(N4CCOCC4)nc32)cc1` the pIC50 was greater than 6.00. `CC1CCC(n2cnc3c(-c4cnc(N)nc4)nc(N4CCOCC4)nc32)CC1` (stereo not drawn) showed a pIC50 greater than 6.00. `CC(C)(C)OC(=O)N1CCC(n2cnc3c(-c4cccc5[nH]ccc45)nc(N4CCOCC4)nc32)C1` (stereo not drawn) was tested, and the pIC50 was greater than 6.00. In the case of `CC(=O)Nc1ccc(Cn2cnc3c(-c4cccc(OC(C)=O)c4)nc(N4CCOCC4)nc32)cc1`, the pIC50 was greater than 6.00. Compound `CC(C)(C)Cn1cnc2c(-c3cnc(N)nc3)nc(N3CCOCC3)nc21` has a pIC50 greater than 6.00. With `CCC(C)n1c(Cl)nc2c(-c3cccc(O)c3)nc(N3CCOCC3)nc21` (stereo not drawn) the pIC50 was greater than 6.00. In the case of `CCCC(=O)N1CCC(n2cnc3c(-c4cnc(N)nc4)nc(N4CCOCC4)nc32)CC1`, the pIC50 was greater than 6.00. `Nc1ncc(-c2nc(N3CCOCC3)nc3c2ncn3C2CCCC2)cn1` showed a pIC50 greater than 6.00. Compound `COCC(C)n1cnc2c(-c3cnc(N)nc3)nc(N3CCOCC3)nc21` (stereo not drawn) has a pIC50 greater than 6.00. For `c1cc(-c2nc(N3CCOCC3)nc3c2ncn3C2CCNCC2)c2cc[nH]c2c1`, the pIC50 was greater than 6.00. Work on `CCCC(=O)N1CCC(n2cnc3c(-c4cccc5[nH]ccc45)nc(N4CCOCC4)nc32)CC1` yielded a pIC50 greater than 6.00. Work on `Oc1cc(F)cc(-c2nc(N3CCOCC3)nc3c2ncn3Cc2ccccc2)c1` yielded a pIC50 greater than 6.00. For `Oc1cccc(-c2nc(N3CCOCC3)nc3c2ncn3CC2CC2)c1`, the pIC50 was greater than 6.00. `CCC(C)n1cnc2c(-c3cccc4[nH]ncc34)nc(N3CCOCC3)nc21` (stereo not drawn) showed a pIC50 greater than 6.00. For `N#CCn1cnc2c(-c3cccc4[nH]ccc34)nc(N3CCOCC3)nc21`, the pIC50 was greater than 6.00. Compound `O=C(Cc1cccnc1)N1CCC(n2cnc3c(-c4cccc5[nH]ccc45)nc(N4CCOCC4)nc32)CC1` has a pIC50 greater than 6.00. With `c1ccc(Cn2cnc3c(-c4cncnc4)nc(N4CCOCC4)nc32)cc1` the pIC50 was greater than 6.00. Compound `CCNc1nc2c(-c3cccc(O)c3)nc(N3CCOCC3)nc2n1C(C)CC` (stereo not drawn) has a pIC50 greater than 6.00. Work on `N#Cc1cccc(Cn2cnc3c(-c4cccc(O)c4)nc(N4CCOCC4)nc32)c1` yielded a pIC50 greater than 6.00. `CC(C1CC1)n1cnc2c(-c3cccc(O)c3)nc(N3CCOCC3)nc21` (stereo not drawn) showed a pIC50 greater than 6.00. For `CCC(C)n1c(NC(C)C)nc2c(-c3cccc(O)c3)nc(N3CCOCC3)nc21` (stereo not drawn), the pIC50 was greater than 6.00. In the case of `CCSc1nc2c(-c3cccc(O)c3)nc(N3CCOCC3)nc2n1C(C)CC` (stereo not drawn), the pIC50 was greater than 6.00. With `CN1CCN(C(=O)Cn2cnc3c(-c4cccc(O)c4)nc(N4CCOCC4)nc32)CC1` the pIC50 was greater than 6.00. `COc1cccc(Cn2cnc3c(-c4cccc(O)c4)nc(N4CCOCC4)nc32)c1` showed a pIC50 greater than 6.00. Work on `CC(C)C(C)n1cnc2c(-c3ccc(N)nc3)nc(N3CCOCC3)nc21` (stereo not drawn) yielded a pIC50 greater than 6.00. Compound `COCCn1cnc2c(-c3cccc(O)c3)nc(N3CCOCC3)nc21` has a pIC50 greater than 6.00. `CCC(C)n1c(NCCN(C)C)nc2c(-c3cccc(O)c3)nc(N3CCOCC3)nc21` (stereo not drawn) showed a pIC50 greater than 6.00. For `Oc1cccc(-c2nc(N3CCOCC3)nc3c2ncn3C2CCOC2)c1` (stereo not drawn), the pIC50 was greater than 6.00. `Oc1cccc(-c2nc(N3CCOCC3)nc3c2ncn3Cc2c(F)cccc2F)c1` was tested, and the pIC50 was greater than 6.00. In the case of `CS(=O)(=O)N1CCN(C(=O)Cn2cnc3c(-c4cccc(O)c4)nc(N4CCOCC4)nc32)CC1`, the pIC50 was greater than 6.00. In the case of `O=[N+]([O-])c1ccc(Cn2cnc3c(-c4cccc(O)c4)nc(N4CCOCC4)nc32)cc1`, the pIC50 was greater than 6.00. Work on `Cc1cccc(-n2cnc3c(-c4cccc(O)c4)nc(N4CCOCC4)nc32)c1` yielded a pIC50 greater than 6.00. For `CC(C)(C)OC(=O)N1CCC(n2cnc3c(-c4cnc(N)nc4)nc(N4CCOCC4)nc32)CC1`, the pIC50 was greater than 6.00. With `CCC(C)n1c(SC)nc2c(-c3cccc(O)c3)nc(N3CCOCC3)nc21` (stereo not drawn) the pIC50 was greater than 6.00. For `CCC(C)n1c(NCCOC)nc2c(-c3cccc(O)c3)nc(N3CCOCC3)nc21` (stereo not drawn), the pIC50 was greater than 6.00. With `CCC(CC)n1cnc2c(-c3cnc(N)nc3)nc(N3CCOCC3)nc21` the pIC50 was greater than 6.00. `Nc1ccc(-c2nc(N3CCOCC3)nc3c2ncn3C2CCCC2)cn1` was tested, and the pIC50 was greater than 6.00. With `c1nc2cc(-c3nc(N4CCOCC4)nc4c3ncn4CC3CC3)ccc2[nH]1` the pIC50 was greater than 6.00. For `C#CCn1cnc2c(-c3cccc(O)c3)nc(N3CCOCC3)nc21`, the pIC50 was greater than 6.00. With `COc1nc(N)ncc1-c1nc(N2CCOCC2)nc2c1ncn2C(C)C1CC1` (stereo not drawn) the pIC50 was greater than 6.00. Compound `CCC(C)n1c(N(C)C)nc2c(-c3cccc(O)c3)nc(N3CCOCC3)nc21` (stereo not drawn) has a pIC50 greater than 6.00. With `CC(C)(C)CC(=O)N1CCC(n2cnc3c(-c4cccc5[nH]ccc45)nc(N4CCOCC4)nc32)CC1` the pIC50 was greater than 6.00. `CCC(C)n1c(C)nc2c(-c3cccc(O)c3)nc(N3CCOCC3)nc21` (stereo not drawn) showed a pIC50 greater than 6.00. `O=C(Cn1cnc2c(-c3cccc(O)c3)nc(N3CCOCC3)nc21)NC1CC1` was tested, and the pIC50 was greater than 6.00. With `Nc1ncc(-c2nc(N3CCOCC3)nc3c2ncn3-c2ccccc2)cn1` the pIC50 was greater than 6.00. `CCN(CC)CCn1cnc2c(-c3cccc(O)c3)nc(N3CCOCC3)nc21` was tested, and the pIC50 was greater than 6.00. Work on `c1cc(-c2nc(N3CCOCC3)nc3c2ncn3C2CCCC2)c2cc[nH]c2c1` yielded a pIC50 greater than 6.00. `CS(=O)(=O)Nc1ccc(Cn2cnc3c(-c4cccc(O)c4)nc(N4CCOCC4)nc32)cc1` gave a pIC50 greater than 6.00. `O=C(CCN1CCCCC1)N1CCC(n2cnc3c(-c4cccc5[nH]ccc45)nc(N4CCOCC4)nc32)CC1` was tested, and the pIC50 was greater than 6.00. In the case of `O=C(CCN1CCCCC1)Nc1ccc(Cn2cnc3c(-c4cccc(O)c4)nc(N4CCOCC4)nc32)cc1`, the pIC50 was greater than 6.00. `Oc1cccc(-c2nc(N3CCOCC3)nc3[nH]c(-c4cccs4)nc23)c1` was tested, and the pIC50 was greater than 6.00. Compound `CCCCNc1nc2c(-c3cccc(O)c3)nc(N3CCOCC3)nc2n1C(C)CC` (stereo not drawn) has a pIC50 greater than 6.00. For `c1cc(-c2nc(N3CCOCC3)nc3c2ncn3C2CCOC2)c2cc[nH]c2c1` (stereo not drawn), the pIC50 was greater than 6.00. With `CC(c1ccccc1)n1cnc2c(-c3cccc(O)c3)nc(N3CCOCC3)nc21` (stereo not drawn) the pIC50 was greater than 6.00. `CC(=O)Nc1ccc(Cn2cnc3c(-c4cccc(O)c4)nc(N4CCOCC4)nc32)cc1` gave a pIC50 greater than 6.00. `COCC(C)n1cnc2c(-c3cccc(O)c3)nc(N3CCOCC3)nc21` (stereo not drawn) gave a pIC50 greater than 6.00. `OCc1cccc(-c2nc(N3CCOCC3)nc3c2ncn3Cc2ccccc2)c1` gave a pIC50 greater than 6.00. `CC(C)(C)OC(=O)N1CCC(n2cnc3c(-c4cccc(O)c4)nc(N4CCOCC4)nc32)CC1` gave a pIC50 greater than 6.00. `CCc1nc2c(-c3cccc(O)c3)nc(N3CCOCC3)nc2n1C(C)CC` (stereo not drawn) showed a pIC50 greater than 6.00. `Oc1cccc(-c2nc(N3CCOCC3)nc3c2ncn3CCOc2ccccc2)c1` showed a pIC50 greater than 6.00. With `Oc1cccc(-c2nc(N3CCOCC3)nc3c2ncn3Cc2cccc(F)c2)c1` the pIC50 was greater than 6.00. `c1cc(-c2nc(N3CCOCC3)nc3c2ncn3CC2CC2)c2cc[nH]c2c1` showed a pIC50 greater than 6.00. `COc1cc(Cn2cnc3c(-c4cccc(O)c4)nc(N4CCOCC4)nc32)cc(OC)c1` gave a pIC50 greater than 6.00. Work on `CS(=O)(=O)N1CCN(CCn2cnc3c(-c4cccc(O)c4)nc(N4CCOCC4)nc32)CC1` yielded a pIC50 greater than 6.00. In the case of `CCC(C)n1c(S(C)(=O)=O)nc2c(-c3cccc(O)c3)nc(N3CCOCC3)nc21` (stereo not drawn), the pIC50 was greater than 6.00. In the case of `N#CCn1cnc2c(-c3cccc(O)c3)nc(N3CCOCC3)nc21`, the pIC50 was greater than 6.00. With `COCCn1cnc2c(-c3cccc4[nH]ccc34)nc(N3CCOCC3)nc21` the pIC50 was greater than 6.00. `COCC(C)n1cnc2c(-c3cnc(N)nc3OC)nc(N3CCOCC3)nc21` (stereo not drawn) showed a pIC50 greater than 6.00. For `Oc1cccc(-c2nc(N3CCOCC3)nc3c2ncn3CCN2CCCC2)c1`, the pIC50 was greater than 6.00. `CC(C1CC1)n1cnc2c(-c3cccc4[nH]ccc34)nc(N3CCOCC3)nc21` (stereo not drawn) was tested, and the pIC50 was greater than 6.00. In the case of `COCC(C)n1cnc2c(-c3cccc4[nH]ccc34)nc(N3CCOCC3)nc21` (stereo not drawn), the pIC50 was greater than 6.00. With `O=C(Nc1ccc(Cl)cc1)N1CCC(n2cnc3c(-c4cccc5[nH]ccc45)nc(N4CCOCC4)nc32)CC1` the pIC50 was greater than 6.00. With `Oc1cccc(-c2nc(N3CCOCC3)nc3c2ncn3Cc2ccccc2)c1` the pIC50 was greater than 6.00. `CCNc1ccc(Cn2cnc3c(-c4cccc(O)c4)nc(N4CCOCC4)nc32)cc1` showed a pIC50 greater than 6.00. With `CCC(C)n1c(-c2ccccc2)nc2c(-c3cccc(O)c3)nc(N3CCOCC3)nc21` (stereo not drawn) the pIC50 was greater than 6.00. In the case of `O=C(Cn1cnc2c(-c3cccc(O)c3)nc(N3CCOCC3)nc21)N1CCCC1`, the pIC50 was greater than 6.00. In the case of `CCCCN1CCC(n2cnc3c(-c4cccc(O)c4)nc(N4CCOCC4)nc32)CC1`, the pIC50 was greater than 6.00. Compound `Cc1ccc(C(=O)N2CCC(n3cnc4c(-c5cccc6[nH]ccc56)nc(N5CCOCC5)nc43)CC2)s1` has a pIC50 greater than 6.00. `c1cc(-c2nc(N3CCOCC3)nc3c2ncn3CC2CCCCC2)c2cc[nH]c2c1` was tested, and the pIC50 was greater than 6.00. In the case of `CCC(CC)n1cnc2c(-c3ccc(N)nc3)nc(N3CCOCC3)nc21`, the pIC50 was greater than 6.00. Work on `CCC(C#N)n1cnc2c(-c3cccc4[nH]ccc34)nc(N3CCOCC3)nc21` (stereo not drawn) yielded a pIC50 greater than 6.00. `Nc1ccc(Cn2cnc3c(-c4cccc(O)c4)nc(N4CCOCC4)nc32)cc1` showed a pIC50 greater than 6.00. `c1cc(-c2nc(N3CCOCC3)nc3c2ncn3CCC2OCCCO2)c2cc[nH]c2c1` gave a pIC50 greater than 6.00. With `COC(=O)c1ccc(Cn2cnc3c(-c4cccc(O)c4)nc(N4CCOCC4)nc32)cc1` the pIC50 was greater than 6.00. With `CCC(C)n1cnc2c(-c3cncnc3)nc(N3CCOCC3)nc21` (stereo not drawn) the pIC50 was greater than 6.00. `CC(COC(C)(C)C)n1cnc2c(-c3cnc(N)nc3)nc(N3CCOCC3)nc21` (stereo not drawn) gave a pIC50 greater than 6.00. `CCC(C)n1cnc2c(-c3ccc(N)nc3)nc(N3CCOCC3)nc21` (stereo not drawn) showed a pIC50 greater than 6.00. Compound `CC(=O)Nc1cccc(Cn2cnc3c(-c4cccc(O)c4)nc(N4CCOCC4)nc32)c1` has a pIC50 greater than 6.00. Compound `Nc1ccc(-c2nc(N3CCOCC3)nc3c2ncn3Cc2cccc([N+](=O)[O-])c2)cn1` has a pIC50 greater than 6.00. Compound `Nc1cccc(Cn2cnc3c(-c4cccc(O)c4)nc(N4CCOCC4)nc32)c1` has a pIC50 greater than 6.00. `CC(c1ccccc1)n1cnc2c(-c3cnc(N)nc3)nc(N3CCOCC3)nc21` (stereo not drawn) showed a pIC50 greater than 6.00. In the case of `CCC(C#N)n1cnc2c(-c3cnc(N)nc3)nc(N3CCOCC3)nc21` (stereo not drawn), the pIC50 was greater than 6.00. With `CS(=O)(=O)N1CCC(n2cnc3c(-c4cccc5[nH]ccc45)nc(N4CCOCC4)nc32)CC1` the pIC50 was greater than 6.00. In the case of `CCC(C)n1c(N2CCCC2)nc2c(-c3cccc(O)c3)nc(N3CCOCC3)nc21` (stereo not drawn), the pIC50 was greater than 6.00. `CC(C)Cn1cnc2c(-c3cccc(O)c3)nc(N3CCOCC3)nc21` was tested, and the pIC50 was greater than 6.00. `CC(C)n1cnc2c(-c3ccc(N)nc3)nc(N3CCOCC3)nc21` gave a pIC50 greater than 6.00. With `Oc1cccc(-c2nc(N3CCOCC3)nc3[nH]c(Br)nc23)c1` the pIC50 was greater than 6.00. Work on `Cc1ccc(C(=O)N2CCC(n3cnc4c(-c5cnc(N)nc5)nc(N5CCOCC5)nc43)C2)s1` (stereo not drawn) yielded a pIC50 greater than 6.00.

From the Kinase Knowledgebase extract (Sharma et al. 2016)
